Measurements taken from patent publication US11419883B2, “Inhibiting senescent processes in beta cells for the prevention of type 1 diabetes” (The Regents of the University of California, priority 2017, dated 2022).
Blank lines part the entries; values can stand above or below the compound they belong to.

Key:
NOD islets [1] = test: NOD islets treated with BH3 mimetics, senescence marker mRNA; assay type: cell-based, mouse; conditions: NOD islets treated with BH3 mimetic
Source text: Example 4. BH3 mimetics preferentially eliminate SASP beta cells in NOD mice. To determine the role of SASP cells in the development of T1D, we next explored whether pro-survival checkpoints could be exploited to promote selective deletion of senescent beta cells. […] The Bcl-2 family contains a hydrophobic groove called the BH3 domain and ‘BH3 mimetics’ are pharmacological compounds that mimic the binding of the BH3-only initiator proteins to the pro-survival members. The BH3 mimetics can trigger apoptosis with some specificity in cells that have high levels of Bcl-2 or the related members. A number of small molecule inhibitors that target Bcl-2, Bcl-xL, Bcl-w or Mcl-1 proteins have been developed and some of them have been used to preferentially trigger apoptosis in senescent cells, both in vitro and in vivo. To determine which Bcl-2 pro-survival members were relevant to SASP islet cells, we treated NOD islets with BH3 mimetics that had different specificities. ABT-737 targets Bcl-2 and family members Bcl-xL and Bcl-w, ABT-199 selectively targets Bcl-2, and Maritoclax targets only Mcl-1. […]

[2] = system: CD45-depleted islet cells; test: SASP factors in conditioned media from CD45-depleted islet cells of treated NOD mice; assay type: in vivo; conditions: compared to vehicle control mice
Method: The secretome of islet cells from the 14-16 week NOD mice was analyzed. Islets depleted of CD45^+ cells were cultured in serum-free media and the resulting culture supernatant, hereafter referred to as conditioned media (CM) was analyzed using a bead-based multi-analyte luminex assay including a variety of key SASP factors and immune cell-specific non-SASP factors (IL-2, Granzyme B). Consistent with the immunohistochemistry analysis, the secretion of SASP factors (IL-6, Serpine1, G-CSF, Ccl2, Mmp9, Mmp12 and Igfpb3) was dramatically higher in the CD45-depleted islet cell populations from 14-week NOD mice as compared with 8-week mice. To determine the time-course of the stress response and SASP in beta cells, younger cohorts of 10 and 12-week old euglycemic NOD mice were analyzed by immunostaining for Cdknla and IL-6.
(§1) Similarly, THP1 chemotaxis activity was reduced in the CM upon ABT-737 treatment of islets relative to vehicle-treated islets ex vivo.

immune compartment = test: Flow cytometry of immune cell types in spleen, pancreatic lymph nodes and islets of treated mice; assay type: in vivo, NOD mice; conditions: pancreatic lymph nodes, islets; for proportions or balance of effector T cells, B cells and regulatory T cells: relative to vehicle control mice
Method: (§2) Example 5. Targeted depletion of SASP beta cells prevents diabetes in NOD mice The impact of senolytic treatments on immune cells was assessed. In islets from NOD mice treated with ABT-737, there was a 2-fold increase in apoptotic cells, as measured by flow cytometry for Annexin V and propidium iodide, in the endocrine compartment compared to vehicle control mice (FIG. 1). […] Flow cytometry was then used to examine the distributions and proportions of main lymphoid cell types involved in T1D in the spleen, pancreatic lymph nodes, and islets from vehicle control and ABT-737- and ABT-199-treated mice.

NOD mice = test: Diabetes incidence in NOD mice after senolytic treatment; assay type: in vivo
Method: FIG. 2 depicts the incidence of diabetes in a cohort of NOD mice treated with ABT-199 (n=5) or vehicle (n=5).
For studies using ABT-737, 10 week old euglycemic NOD/ShiltJ mice were given oral gavage of 100 mg/kg ABT-737 or vehicle (30% propylene glycol, 5% Tween-80 and 65% D5W) for 3 consecutive days followed by a break for 4 days and then again treated for 3 days (a total of 6 doses), and then untreated for 2 weeks followed by three consecutive days of ABT-737 or vehicle treatment and then allowed to age without further treatment until 28 weeks of age.
To determine whether clearance of SASP beta cells prevented diabetes, 10 week euglycemic NOD mice were administered ABT-737 by oral gavage for two weeks, followed by another dose at 16 weeks and allowed to age. Strikingly, while 60% of vehicle control mice were diabetic at this time, only 40% of ABT-737-treated mice became diabetic. We performed a similar study with ABT-199, administering the drug by oral gavage for 2 weeks from 11-13 weeks of age and allowing the mice to age to 30 weeks. Remarkably, while 100% of the controls became diabetic by 28 weeks, only 10% of the ABT-199-treated mice were diabetic (FIG. 2).

SASP beta cells = test: ABT-737 oral gavage in NOD mice, immunostaining of senescence and SASP markers in beta cells; assay type: in vivo; conditions: oral gavage for 1 week
Method: To determine whether ABT-737 targeted SASP beta cells for apoptosis in vivo, NOD mice were administered ABT-737 via oral gavage for 1 week followed by analysis of senescence and SASP markers by immunostaining.

[3] = system: NOD MEFs and 8-week NOD islet cells; test: Paracrine senescence activity of conditioned media from islet cells of treated mice; assay type: cell-based, mouse; conditions: CM from CD45-depleted islet cells of treated mice, on NOD MEFs and 8-week NOD islet cells
Method: Example 3. Non-cell autonomous activities of islet SASP. To address whether the SASP of beta cells had non-cell autonomous effects resembling SASP, the ability of secreted factors from CD45-depleted islet cells of 14 wk NOD mice to induce senescence in NOD mouse embryonic fibroblasts (MEFs) and in 8 week NOD islets (when senescence is not observed) was assessed. When early passage NOD MEFs were cultured in the presence of CM from 14 wk CD45-depleted NOD islet cells (NCM) they induced Cdkn1a and Cdkn2a expression and increased SA-βgal activity, similarly to the senescent MEF CM control (SCM). The NCM was also capable of increasing the proportion of SA-βgal^+ cells in the cultured islets from 8 week old NOD mice.
as §1

human THP-1 cell line = test: THP1 monocyte chemotaxis (transwell) with conditioned media of treated islets; assay type: cell-based; conditions: treatment of islets ex vivo, relative to vehicle-treated islets
Method: The ability of CM from NOD islet cells and human islets to induce monocyte chemotaxis using the transwell assay was tested using the human THP-1 cell line. NCM was capable of stimulating chemotaxis 3-fold over the SFM control, similarly to the positive control, serum-free media conditioned with recombinant mouse CCL2. In addition, CM from human islets expressing SASP induced THP1 chemotaxis ˜5-fold over the SFM control.
as §1

NOD islets [4] = test: Apoptosis in islets of treated NOD mice (Annexin V/propidium iodide flow cytometry, TUNEL); assay type: in vivo
Method: FIG. 1 depicts the abundance of apoptotic cells (Annexin V^+) in the CD45-(endocrine enriched) fractions of NOD islets treated with ABT-737 for two weeks, compared to control vehicle-treated mice (n=2 mice per group), error bars are s.d. *p<0.05, two-tailed T-test.
as §2

[5] = system: normal human donor islets; test: Bleomycin-induced senescence and SASP in normal human donor islets; assay type: cell-based
Method: Next, normal human donor islets were treated with the chemotherapeutic agent bleomycin to induce double-strand DNA breaks and monitored the development of stress-induced senescence and SASP by qRT-PCR and secretion assays after 5 days, coinciding with the typical onset of SASP.

Compound: O=C(c1ccccc1O)c1[nH]c(Cl)c(Cl)c1-n1c(C(=O)c2ccccc2O)cc(Cl)c1Cl [Maritoclax]
Cdkn1a mRNA from treated islets (NOD islets [1]): did not have effects | Cdkn2a mRNA from treated islets (NOD islets [1]): did not have effects

proportions of macrophages or dendritic cells (immune compartment): no changes | proportions or balance of effector T cells, B cells and regulatory T cells (immune compartment): no significant changes
Compound: CC1(C)CCC(CN2CCN(c3ccc(C(=O)NS(=O)(=O)c4ccc(NCC5CCOCC5)c([N+](=O)[O-])c4)c(Oc4cnc5[nH]ccc5c4)c3)CC2)=C(c2ccc(Cl)cc2)C1 [ABT-199]
Cdkn1a mRNA from treated islets (NOD islets [1]): significant reduction | Cdkn2a mRNA from treated islets (NOD islets [1]): significant reduction | levels of SASP factors in CM from CD45-depleted islet cells [2]: lower levels of most of the SASP factors | treated mice diabetic (NOD mice; dosed 2 weeks from 11-13 weeks of age, by 28 weeks, 100% of controls diabetic): 10%

proportions of macrophages or dendritic cells (immune compartment): no changes | proportions or balance of effector T cells, B cells and regulatory T cells (immune compartment): no significant changes
Compound: CN(C)CC[C@H](CSc1ccccc1)Nc1ccc(S(=O)(=O)NC(=O)c2ccc(N3CCN(Cc4ccccc4-c4ccc(Cl)cc4)CC3)cc2)cc1[N+](=O)[O-] [ABT-737]
Cdkn1a mRNA from treated islets (NOD islets [1]): significant reduction | Cdkn2a mRNA from treated islets (NOD islets [1]): significant reduction | Cdkn2a expression in beta cells (immunostaining) (SASP beta cells): marked reduction | reduction in Cdkn2a+ beta cells (SASP beta cells; quantification): over 40% | SASP marker Mmp2+ beta cells (SASP beta cells; relative to controls): only rarely detected | levels of SASP factors in CM from CD45-depleted islet cells [2]: lower levels of most of the SASP factors | paracrine senescence activity of CM [3]: diminished | THP1 chemotaxis activity of CM (human THP-1 cell line): reduced | increase in apoptotic cells (Annexin V+) in the endocrine compartment (NOD islets [4]; CD45- fraction of NOD islets, treated two weeks, compared to vehicle control mice): 2 fold | TUNEL staining of apoptotic islet cells (NOD islets [4]; pancreata from treated mice): showed TUNEL^+ cells within the islet | apoptosis in the immune compartment (NOD islets [4]; relative to vehicle controls): no significant differences | treated mice that became diabetic (NOD mice; 10 week NOD mice, oral gavage two weeks plus another dose at 16 weeks, 60% of vehicle controls diabetic): 40%

Compound: bleomycin
expression of CDKN1A and CDKN2A (qRT-PCR) ([5]; after 5 days): induced expression | SASP factors IL-6, IL-8, IL-1β and TNFα in CM (Luminex) ([5]; compared with control islet CM): increased levels
